Test results published in ChEMBL document CHEMBL3132769, “Fragment growing to retain or alter the selectivity of anchored kinase hinge-binding fragments” (Medchemcomm, 2014).

Columns and labels:
[1] = target: MAP kinase-activated protein kinase 3 (Homo sapiens) (UniProt Q16644); test: Inhibition of human full length MAPKAPK3 expressed in Escherichia coli cell assessed as substrate phosphorylation using fluorescence-labelled peptides as substrate at 95 uM after 90 mins by microfluidic peptide phosphorylation assay
Homo sapiens = species: Homo sapiens; test: Inhibition of human full length PKA expressed in baculovirus assessed as substrate phosphorylation using fluorescence-labelled peptides as substrate at 0.06 uM after 90 mins by microfluidic peptide phosphorylation assay
[2] = target: Calcium/calmodulin-dependent protein kinase type II subunit gamma (Homo sapiens) (UniProt Q13555); test: Inhibition of human CAMK2 gamma catalytic domain expressed in baculovirus assessed as substrate phosphorylation using fluorescence-labelled peptides as substrate at 420 uM after 90 mins by microfluidic peptide phosphorylation assay
[3] = target: Receptor-type tyrosine-protein kinase FLT3 (Homo sapiens) (UniProt P36888); test: Inhibition of human FLT3 catalytic domain expressed in baculovirus assessed as substrate phosphorylation using fluorescence-labelled peptides as substrate at 420 uM after 90 mins by microfluidic peptide phosphorylation assay
[4] = target: Mitogen-activated protein kinase 14 (Homo sapiens) (UniProt Q16539); test: Inhibition of human truncated p38 alpha expressed in Escherichia coli cell assessed as substrate phosphorylation using fluorescence-labelled peptides as substrate at 420 uM after 90 mins by microfluidic peptide phosphorylation assay
[5] = target: T1, Serine/threonine-protein kinase D3 (Homo sapiens) (UniProt O94806); test: Inhibition of human full length PKD3 expressed in baculovirus assessed as substrate phosphorylation using fluorescence-labelled peptides as substrate at 420 uM after 90 mins by microfluidic peptide phosphorylation assay
T1 sequence (whole entry): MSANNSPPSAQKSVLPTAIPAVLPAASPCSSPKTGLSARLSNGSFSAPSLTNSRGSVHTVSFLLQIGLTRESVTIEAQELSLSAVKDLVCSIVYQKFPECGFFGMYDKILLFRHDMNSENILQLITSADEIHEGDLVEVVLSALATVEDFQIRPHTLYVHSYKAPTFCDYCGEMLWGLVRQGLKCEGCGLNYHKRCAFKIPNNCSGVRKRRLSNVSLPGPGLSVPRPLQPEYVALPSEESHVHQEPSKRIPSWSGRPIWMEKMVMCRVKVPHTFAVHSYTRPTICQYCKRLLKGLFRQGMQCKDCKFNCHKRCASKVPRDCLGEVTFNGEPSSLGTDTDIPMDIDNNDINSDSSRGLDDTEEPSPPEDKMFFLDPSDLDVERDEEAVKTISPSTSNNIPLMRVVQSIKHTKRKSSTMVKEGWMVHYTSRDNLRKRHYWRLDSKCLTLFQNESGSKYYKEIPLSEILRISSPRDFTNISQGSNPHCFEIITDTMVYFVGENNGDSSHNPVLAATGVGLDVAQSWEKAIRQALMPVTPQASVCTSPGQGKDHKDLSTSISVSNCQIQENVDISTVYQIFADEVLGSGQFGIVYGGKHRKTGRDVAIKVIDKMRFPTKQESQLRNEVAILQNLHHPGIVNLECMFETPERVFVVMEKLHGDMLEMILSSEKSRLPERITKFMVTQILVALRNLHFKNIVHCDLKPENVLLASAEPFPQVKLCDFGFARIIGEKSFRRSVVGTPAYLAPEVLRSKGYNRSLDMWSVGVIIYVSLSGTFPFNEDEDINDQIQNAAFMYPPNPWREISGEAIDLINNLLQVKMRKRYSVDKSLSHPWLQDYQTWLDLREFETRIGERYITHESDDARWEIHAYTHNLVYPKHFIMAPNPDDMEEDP

[6] = target: MAP kinase-activated protein kinase 2 (Homo sapiens) (UniProt P49137); test: Inhibition of human full length MAPKAPK2 expressed in baculovirus assessed as substrate phosphorylation using fluorescence-labelled peptides as substrate at 70 uM after 90 mins by microfluidic peptide phosphorylation assay
[7] = target: T2, Mitogen-activated protein kinase 13 (Homo sapiens) (UniProt O15264); test: Inhibition of human full length p38 delta expressed in Escherichia coli cell assessed as substrate phosphorylation using fluorescence-labelled peptides as substrate at 70 uM after 90 mins by microfluidic peptide phosphorylation assay
T2 sequence (whole entry): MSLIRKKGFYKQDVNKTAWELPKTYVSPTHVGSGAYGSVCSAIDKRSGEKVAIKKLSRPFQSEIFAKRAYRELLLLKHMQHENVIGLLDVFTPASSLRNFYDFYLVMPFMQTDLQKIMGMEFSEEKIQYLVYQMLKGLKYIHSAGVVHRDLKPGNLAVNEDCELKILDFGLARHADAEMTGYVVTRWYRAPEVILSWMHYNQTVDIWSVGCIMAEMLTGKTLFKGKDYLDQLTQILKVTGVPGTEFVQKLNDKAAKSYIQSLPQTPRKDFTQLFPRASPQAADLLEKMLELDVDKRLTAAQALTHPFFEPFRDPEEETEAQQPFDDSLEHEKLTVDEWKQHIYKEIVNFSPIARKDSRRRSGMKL

[8] = target: T3, Serine/threonine-protein kinase DCLK2 (Homo sapiens) (UniProt Q8N568); test: Inhibition of human full length DCAMKL2 expressed in baculovirus assessed as substrate phosphorylation using fluorescence-labelled peptides as substrate at 2 uM after 90 mins by microfluidic peptide phosphorylation assay
T3 sequence (whole entry): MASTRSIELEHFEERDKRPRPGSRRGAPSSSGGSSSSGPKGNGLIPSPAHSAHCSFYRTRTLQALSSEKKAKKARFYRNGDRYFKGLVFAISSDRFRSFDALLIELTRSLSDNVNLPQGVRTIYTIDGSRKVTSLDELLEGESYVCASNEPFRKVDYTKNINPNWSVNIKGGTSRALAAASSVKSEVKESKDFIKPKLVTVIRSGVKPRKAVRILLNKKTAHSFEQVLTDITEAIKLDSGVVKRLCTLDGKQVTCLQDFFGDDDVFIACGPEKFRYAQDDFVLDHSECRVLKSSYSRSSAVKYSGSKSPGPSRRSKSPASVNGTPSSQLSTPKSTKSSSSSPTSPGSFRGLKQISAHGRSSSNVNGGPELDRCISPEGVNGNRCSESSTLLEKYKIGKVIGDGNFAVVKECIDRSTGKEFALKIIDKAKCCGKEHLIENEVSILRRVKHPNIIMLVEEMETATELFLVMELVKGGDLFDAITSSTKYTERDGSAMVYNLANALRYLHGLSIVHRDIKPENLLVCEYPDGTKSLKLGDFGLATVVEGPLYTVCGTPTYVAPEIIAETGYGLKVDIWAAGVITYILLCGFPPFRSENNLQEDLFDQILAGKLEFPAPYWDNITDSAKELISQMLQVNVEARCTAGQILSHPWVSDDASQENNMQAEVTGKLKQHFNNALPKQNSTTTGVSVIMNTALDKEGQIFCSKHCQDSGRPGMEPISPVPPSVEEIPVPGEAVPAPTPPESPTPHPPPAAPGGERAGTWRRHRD

[9] = target: Protein kinase C eta type (Homo sapiens) (UniProt P24723); test: Inhibition of human truncated PKC eta expressed in baculovirus assessed as substrate phosphorylation using fluorescence-labelled peptides as substrate at 1000 uM after 90 mins by microfluidic peptide phosphorylation assay
Protein kinase C eta type (Homo sapiens), sequence (P24723 whole entry, the tested form may be a part): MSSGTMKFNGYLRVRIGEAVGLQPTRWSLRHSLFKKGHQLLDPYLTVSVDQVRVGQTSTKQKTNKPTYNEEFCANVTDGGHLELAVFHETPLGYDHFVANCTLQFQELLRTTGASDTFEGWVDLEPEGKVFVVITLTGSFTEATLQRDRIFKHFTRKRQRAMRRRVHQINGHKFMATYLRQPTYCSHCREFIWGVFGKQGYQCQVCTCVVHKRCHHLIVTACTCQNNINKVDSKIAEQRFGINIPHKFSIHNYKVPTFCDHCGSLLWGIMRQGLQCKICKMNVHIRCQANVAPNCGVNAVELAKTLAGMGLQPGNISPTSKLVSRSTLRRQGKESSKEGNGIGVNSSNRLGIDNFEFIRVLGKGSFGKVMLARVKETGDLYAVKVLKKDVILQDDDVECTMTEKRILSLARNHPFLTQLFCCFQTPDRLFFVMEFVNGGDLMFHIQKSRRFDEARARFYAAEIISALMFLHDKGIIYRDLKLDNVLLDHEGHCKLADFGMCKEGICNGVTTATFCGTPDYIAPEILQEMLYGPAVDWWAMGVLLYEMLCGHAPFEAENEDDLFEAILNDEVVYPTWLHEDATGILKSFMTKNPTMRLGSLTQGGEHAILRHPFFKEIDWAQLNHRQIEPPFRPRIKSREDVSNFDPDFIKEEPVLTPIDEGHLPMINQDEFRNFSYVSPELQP

Receptor-type tyrosine-protein kinase FLT3 (Homo sapiens), sequence (P36888 whole entry, the tested form may be a part): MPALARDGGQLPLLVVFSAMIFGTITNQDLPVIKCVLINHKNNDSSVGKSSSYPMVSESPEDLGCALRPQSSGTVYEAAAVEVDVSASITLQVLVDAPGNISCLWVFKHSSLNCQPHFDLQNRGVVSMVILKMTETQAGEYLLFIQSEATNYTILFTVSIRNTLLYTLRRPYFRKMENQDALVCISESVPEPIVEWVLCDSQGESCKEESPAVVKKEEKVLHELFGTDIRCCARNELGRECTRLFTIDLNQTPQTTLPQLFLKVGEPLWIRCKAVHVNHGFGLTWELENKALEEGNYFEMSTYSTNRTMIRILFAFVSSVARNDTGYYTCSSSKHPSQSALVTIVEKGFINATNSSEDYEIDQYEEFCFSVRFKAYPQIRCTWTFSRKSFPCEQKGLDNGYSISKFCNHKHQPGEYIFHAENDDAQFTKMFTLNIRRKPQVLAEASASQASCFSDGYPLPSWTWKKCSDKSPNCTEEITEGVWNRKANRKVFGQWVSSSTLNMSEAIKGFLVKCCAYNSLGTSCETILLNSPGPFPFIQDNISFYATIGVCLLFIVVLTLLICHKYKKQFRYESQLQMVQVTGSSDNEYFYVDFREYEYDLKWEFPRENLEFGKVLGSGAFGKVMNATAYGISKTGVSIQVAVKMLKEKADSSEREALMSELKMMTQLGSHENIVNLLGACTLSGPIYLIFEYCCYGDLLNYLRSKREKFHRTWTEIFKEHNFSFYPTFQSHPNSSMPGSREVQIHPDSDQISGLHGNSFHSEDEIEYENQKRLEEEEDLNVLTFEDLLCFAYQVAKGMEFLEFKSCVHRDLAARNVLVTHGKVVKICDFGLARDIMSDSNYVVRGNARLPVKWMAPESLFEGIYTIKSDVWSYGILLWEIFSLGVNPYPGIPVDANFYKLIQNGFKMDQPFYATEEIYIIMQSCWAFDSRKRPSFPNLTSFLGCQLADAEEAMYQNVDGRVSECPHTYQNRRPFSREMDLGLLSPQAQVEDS
Calcium/calmodulin-dependent protein kinase type II subunit gamma (Homo sapiens), sequence (Q13555 whole entry, the tested form may be a part): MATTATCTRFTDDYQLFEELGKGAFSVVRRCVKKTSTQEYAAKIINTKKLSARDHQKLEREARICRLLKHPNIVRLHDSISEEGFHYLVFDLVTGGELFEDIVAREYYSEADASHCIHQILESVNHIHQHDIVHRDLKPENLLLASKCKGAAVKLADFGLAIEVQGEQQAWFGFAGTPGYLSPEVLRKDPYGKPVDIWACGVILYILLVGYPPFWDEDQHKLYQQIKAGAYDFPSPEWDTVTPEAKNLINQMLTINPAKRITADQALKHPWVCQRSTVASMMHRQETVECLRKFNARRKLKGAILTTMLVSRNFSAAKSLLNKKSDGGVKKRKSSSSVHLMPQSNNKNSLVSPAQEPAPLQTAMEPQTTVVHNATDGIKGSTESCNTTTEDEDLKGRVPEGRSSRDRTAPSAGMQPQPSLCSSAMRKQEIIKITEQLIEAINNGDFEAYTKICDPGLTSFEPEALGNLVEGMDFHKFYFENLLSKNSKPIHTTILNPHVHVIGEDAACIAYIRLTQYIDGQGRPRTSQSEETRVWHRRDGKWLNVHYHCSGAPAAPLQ
MAP kinase-activated protein kinase 2 (Homo sapiens), sequence (P49137 whole entry, looked up): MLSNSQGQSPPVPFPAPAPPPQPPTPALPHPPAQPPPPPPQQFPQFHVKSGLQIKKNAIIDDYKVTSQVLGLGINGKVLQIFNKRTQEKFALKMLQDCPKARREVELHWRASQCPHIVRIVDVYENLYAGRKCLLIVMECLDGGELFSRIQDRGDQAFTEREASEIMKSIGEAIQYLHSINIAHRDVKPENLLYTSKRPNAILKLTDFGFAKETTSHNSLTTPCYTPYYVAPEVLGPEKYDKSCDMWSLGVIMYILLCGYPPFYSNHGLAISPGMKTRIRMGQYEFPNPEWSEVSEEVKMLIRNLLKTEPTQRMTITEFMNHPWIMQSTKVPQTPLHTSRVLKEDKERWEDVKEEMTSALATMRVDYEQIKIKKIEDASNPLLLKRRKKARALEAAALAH
Mitogen-activated protein kinase 14 (Homo sapiens), sequence (Q16539 whole entry, the tested form may be a part): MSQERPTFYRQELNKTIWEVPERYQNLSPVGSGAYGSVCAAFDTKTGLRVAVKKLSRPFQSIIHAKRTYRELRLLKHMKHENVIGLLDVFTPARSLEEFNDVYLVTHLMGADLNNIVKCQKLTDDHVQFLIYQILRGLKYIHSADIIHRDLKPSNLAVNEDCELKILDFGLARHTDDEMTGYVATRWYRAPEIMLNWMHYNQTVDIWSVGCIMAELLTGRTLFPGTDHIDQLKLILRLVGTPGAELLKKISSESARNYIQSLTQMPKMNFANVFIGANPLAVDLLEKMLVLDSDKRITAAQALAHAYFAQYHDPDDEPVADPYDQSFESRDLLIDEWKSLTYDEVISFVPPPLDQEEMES
MAP kinase-activated protein kinase 3 (Homo sapiens), sequence (Q16644 whole entry, looked up): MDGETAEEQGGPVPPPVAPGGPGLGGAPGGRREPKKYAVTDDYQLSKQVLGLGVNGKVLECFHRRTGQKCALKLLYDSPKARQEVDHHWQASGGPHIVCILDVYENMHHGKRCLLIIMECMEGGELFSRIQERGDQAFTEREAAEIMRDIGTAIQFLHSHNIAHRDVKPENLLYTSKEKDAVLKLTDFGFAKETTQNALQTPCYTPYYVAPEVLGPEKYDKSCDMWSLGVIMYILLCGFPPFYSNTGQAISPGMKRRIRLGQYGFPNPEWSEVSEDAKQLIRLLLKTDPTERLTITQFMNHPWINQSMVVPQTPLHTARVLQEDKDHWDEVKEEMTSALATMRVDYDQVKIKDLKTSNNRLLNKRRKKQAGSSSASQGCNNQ

NCCc1ccc(-c2ncnc3[nH]cnc23)cc1
inhibition [1]: 24%

NC1(Cc2ccc(Cl)cc2)CCN(c2ncnc3[nH]ccc23)CC1
inhibition (Homo sapiens): 17%

c1nc(N2CCOCC2)c2nc[nH]c2n1
inhibition [2]: 42% | inhibition [3]: 85.5% | inhibition [4]: 0% | inhibition [5]: 85%

CNCc1ccc(-c2ncnc3[nH]cnc23)cc1
inhibition [6]: 77% | inhibition [7]: 5%

NC1CCN(c2ncnc3[nH]ccc23)CC1
inhibition [8]: 1.5%

c1cnc2[nH]ccc2c1
inhibition [9]: 52%
